Consider seven compounds from article PMC11057203, “Synergy between Winter Flounder antimicrobial peptides” (npj Antimicrobials and Resistance, 2023).

One experiment concerns EMRSA-15 NCTC 13616. The format is cell-based, Staphylococcus aureus. On the procedure: (§1) Synergy was measured using standard microdilution Chequerboard assays under the same conditions as the MICs with RPMI140 + 5% FBS used alongside MHB[18]. Twofold dilution series of each peptide or antibiotic were prepared in separate 96 well plates and then combined into one before addition of bacteria. The growth/no growth interface was determined using the same definition as the MIC. The fractional inhibitory concentration was calculated from the most synergistic well on the plate for three independent repeats, and presented as above. MICs were determined on the same plates as the FICs to increase reproducibility.

A further experiment relates to P. aeruginosa RP73. The format is cell-based, Pseudomonas aeruginosa. On the procedure: as §1
In experiment [1] the test system is Escherichia coli NCTC 12923. The format is cell-based. Particulars: Supplementary Table 1; Mueller-Hinton broth; unit inferred.
Method: (§3) The antibacterial activity of the peptides was assessed through a modified two-fold broth microdilution assay with modal MICs generated from at least three biological replicate experiments[37]. The method broadly followed EUCAST methodology, with non-cation adjusted Mueller Hinton replacing cation-adjusted Mueller Hinton. Peptides and antibiotics were diluted in a two-fold dilution in media down a 96 well plate. Bacteria were then added, back-diluted from an overnight culture, at a starting concentration of 5 × 10^5 CFU/ml. Plates were incubated, static at 37 °C, for 20 h and the OD600 was determined using a Clariostar plate reader (BMG Labtech).
The subject of a further experiment is P. aeruginosa CAS2. Briefly: Broth microdilution MIC. The class given is cell-based, Pseudomonas aeruginosa. Particulars: Supplementary Table 1; Mueller-Hinton broth; unit not given. How it is done: (§2) The antibacterial activity of the peptides was assessed through a modified two-fold broth microdilution assay with modal MICs generated from at least three biological replicate experiments. The method broadly followed EUCAST methodology, with non-cation adjusted Mueller Hinton replacing cation-adjusted Mueller Hinton. Peptides and antibiotics were diluted in a two-fold dilution in media down a 96 well plate. Bacteria were then added, back-diluted from an overnight culture, at a starting concentration of 5 × 10^5 CFU/ml. Plates were incubated, static at 37 °C, for 20 h and the OD600 was determined using a Clariostar plate reader (BMG Labtech).
A general note: Broth dilution looks for growth in wells or tubes with falling amounts of substance.

A further experiment deals with P. aeruginosa GH12. The experiment in a line: Broth microdilution MIC. The format is cell-based, Pseudomonas aeruginosa. Particulars: Supplementary Table 1; Mueller-Hinton broth; unit not given. On the procedure: as §2
Another experiment relates to P. aeruginosa CAS3. The experiment in a line: Broth microdilution MIC. The format is cell-based, Pseudomonas aeruginosa. Particulars: Supplementary Table 1; Mueller-Hinton broth; unit not given. On the procedure:
as §2

The next experiment has as its system P. aeruginosa CAS4. Briefly: Broth microdilution MIC. The format is cell-based, Pseudomonas aeruginosa. Particulars: Supplementary Table 1; Mueller-Hinton broth; unit not given. How it is done:
as §2

For another experiment, the system named is P. aeruginosa 372261. Briefly: Broth microdilution MIC. The format is cell-based, Pseudomonas aeruginosa. To be noted: Supplementary Table 1; Mueller-Hinton broth; unit not given. On the procedure:
as §2

Experiment [2] relates to EMR Staphylococcus aureus-15 NCTC 13616. The format is cell-based. Particulars: Supplementary Table 1; Mueller-Hinton broth; unit inferred.
Method: as §3
Experiment [3] relates to Acinetobacter baumannii AYE. The format is cell-based. To be noted: Supplementary Table 1; Mueller-Hinton broth; unit inferred.
Method: as §3
In experiment [4] the test system is Staphylococcus aureus 1199B. The experiment in a line: Broth microdilution MIC. To be noted: Supplementary Table 1; Mueller-Hinton broth; unit not given. The class given is cell-based. On the procedure:
as §2

The test system of experiment [5] is Staphylococcus aureus USA300. The experiment in a line: Broth microdilution MIC. Particulars: Supplementary Table 1; Mueller-Hinton broth; unit not given. The class given is cell-based. How it is done:
as §2

Experiment [6] concerns Staphylococcus aureus NCTC 6571. Briefly: Broth microdilution MIC. The format is cell-based. Particulars: Supplementary Table 1; Mueller-Hinton broth; unit not given. How it is done: as §2
In experiment [7] the test system is Acinetobacter baumannii ATCC 17978. The class given is cell-based. To be noted: Supplementary Table 1; Mueller-Hinton broth; unit inferred.
Method: as §3
Experiment [8] has as its system Klebsiella pneumoniae NCTC 13368. The class given is cell-based. Particulars: Supplementary Table 1; Mueller-Hinton broth; unit inferred.
Method: as §3
The subject of experiment [9] is Pseudomonas aeruginosa RP73. The format is cell-based. To be noted: Supplementary Table 1; Mueller-Hinton broth; unit inferred.
Method: as §3
The subject of experiment [10] is Pseudomonas aeruginosa NCTC 13437. The class given is cell-based. To be noted: Supplementary Table 1; Mueller-Hinton broth; unit inferred.
Method: as §3
The next experiment concerns Klebsiella pneumoniae M6. The class given is cell-based. To be noted: Supplementary Table 1; Mueller-Hinton broth; unit inferred.
Experiment [11] concerns VS Enterococcus faecalis NCTC 775. The format is cell-based. Particulars: Supplementary Table 1; Mueller-Hinton broth; unit not given.
Experiment [12] has as its system VR Enterococcus faecium NCTC 12204. The format is cell-based. Particulars: Supplementary Table 1; Mueller-Hinton broth; unit inferred.
Method: as §3
The test system of experiment [13] is Pseudomonas aeruginosa PAO1. The class given is cell-based. Particulars: Supplementary Table 1; Mueller-Hinton broth; unit inferred.
Method: as §3
The subject of experiment [14] is VR Enterococcus faecalis NCTC 12201. The class given is cell-based. To be noted: Supplementary Table 1; Mueller-Hinton broth; unit inferred.
Method: as §3
The test system of a further experiment is A. baumannii ATCC 17978. Briefly: Galleria mellonella burn wound infection model. To be noted: 5 mg/kg, topical 1 h after infection; n = 30 larvae; burn and infection untreated 46.0%. The format is in vivo.
In a further experiment the test system is Gram-negative bacteria. Briefly: Broth microdilution MIC, Gram-negative panel. The format is cell-based. To be noted: Mueller–Hinton broth; span of Table 2 Gram-negative isolates. How it is done:
as §2

Molecules are shown by their SMILES. Non-standard residues stand in square brackets, D forms with d. Residues, ends and D or L forms follow the SMILES beside them.

Method for A. baumannii ATCC 17978: Prior to use, G. mellonella were surface decontaminated by immersion in 50% ethanol for 20 s and allowed to dry. All assays were performed on three separate occasions using a group size of 10 larvae; the larvae were kept in separate petri dishes and in the dark in a static incubator at 37 °C for the duration of the experiment. Fresh agar plates of A. baumannii ATCC 17978 were prepared immediately prior to the experiment. Larvae were burnt using the flat head of a nail which was heated in a blue Bunsen burner flame until red hot, cooled for 15 s and superficially applied for 2 s to generate a 2 mm^2 burn. Larvae were infected with a single colony of A. baumannii ATCC 17978 applied directly to the burn site. Treatment was applied topically 1 h after infection in a volume of 5 µl or sterile phosphate buffered saline as a control. Survival was monitored over 96 h.
Method for Klebsiella pneumoniae M6: as §3

With `CC[C@@H](C)[C@@H](NC(=O)[C@@H](CCCNC(=N)N)NC(=O)[C@@H](CCCNC(=N)N)NC(=O)[C@@H](CC(C)C)NC(=O)[C@H](N)Cc1c[nH]c2ccccc12)C(=O)NCC(=O)N[C@H](CCCCN)C(=O)NCC(=O)N[C@@H](C(=O)N[C@H](CCCCN)C(=O)N[C@@H](C(=O)N[C@@H](C(=O)NCC(=O)NCC(=O)N[C@H](C)C(=O)N[C@H](C)C(=O)N[C@H](CC(C)C)C(=O)N[C@H](CC(=O)O)C(=O)N[C@H](Cc1c[nH]cn1)C(=O)N[C@H](CC(C)C)C(N)=O)[C@H](C)CC)[C@H](C)CC)C(C)C` [D-WF1a] (H-[dW][dL][dR][dR][dI]G[dK]G[dV][dK][dI][dI]GG[dA][dA][dL][dD][dH][dL]-NH2; N-terminus assumed), the “D-WF1a MIC (alone)” value in the experiment with EMRSA-15 NCTC 13616 and in the experiment on P. aeruginosa RP73 was 512 µg/mL in each case.
Consider `CC(C)C[C@@H](NC(=O)[C@@H](Cc1ccc(O)cc1)NC(=O)[C@@H](Cc1c[nH]cn1)NC(=O)[C@H](NC(=O)[C@@H](CC(C)C)NC(=O)[C@@H](C)NC(=O)[C@@H](C)NC(=O)[C@@H](CCCNC(=N)N)NC(=O)CNC(=O)[C@H](NC(=O)[C@@H](Cc1c[nH]cn1)NC(=O)[C@@H](CCCNC(=N)N)NC(=O)CNC(=O)[C@H](NC(=O)[C@@H](Cc1c[nH]cn1)NC(=O)[C@@H](C)NC(=O)[C@@H](C)NC(=O)[C@@H](CCCNC(=N)N)NC(=O)[C@@H](CCCNC(=N)N)NC(=O)[C@@H](Cc1ccccc1)NC(=O)[C@@H](Cc1ccccc1)NC(=O)[C@@H](CO)NC(=O)CNC(=O)[C@@H](Cc1c[nH]c2ccccc12)NC(=O)CN)C(C)C)C(C)C)[C@H](C)O)C(N)=O` [D-pleurocidin-KR] (H-G[dW]G[dS][dF][dF][dR][dR][dA][dA][dH][dV]G[dR][dH][dV]G[dR][dA][dA][dL][dT][dH][dY][dL]-NH2; N-terminus assumed), for which the “Pleurocidin MIC (analogue alone)” value in the experiment with EMRSA-15 NCTC 13616 is on record as 2 µg/ml; with P. aeruginosa RP73, 8-16 µg/ml.
Take `CC(C)C[C@@H](NC(=O)[C@@H](Cc1ccc(O)cc1)NC(=O)[C@@H](Cc1c[nH]cn1)NC(=O)[C@H](NC(=O)[C@@H](CC(C)C)NC(=O)[C@@H](C)NC(=O)[C@@H](C)NC(=O)[C@@H](CCCCN)NC(=O)CNC(=O)[C@H](NC(=O)[C@@H](Cc1c[nH]cn1)NC(=O)[C@@H](CCCCN)NC(=O)CNC(=O)[C@H](NC(=O)[C@@H](Cc1c[nH]cn1)NC(=O)[C@@H](C)NC(=O)[C@@H](C)NC(=O)[C@@H](CCCCN)NC(=O)[C@@H](CCCCN)NC(=O)[C@@H](Cc1ccccc1)NC(=O)[C@@H](Cc1ccccc1)NC(=O)[C@@H](CO)NC(=O)CNC(=O)[C@@H](Cc1c[nH]c2ccccc12)NC(=O)CN)C(C)C)C(C)C)[C@H](C)O)C(N)=O` [D-pleurocidin] (H-G[dW]G[dS][dF][dF][dK][dK][dA][dA][dH][dV]G[dK][dH][dV]G[dK][dA][dA][dL][dT][dH][dY][dL]-NH2; N-terminus assumed): the Antimicrobial activity of D-enantiomers, Escherichia coli NCTC 12923 in experiment [1] is 1 µg/mL. Also, the “Antimicrobial activity of D-enantiomers, P. aeruginosa CAS2” value with P. aeruginosa CAS2 was 8. The “Antimicrobial activity of D-enantiomers, P. aeruginosa GH12” value in the experiment on P. aeruginosa GH12 stood at 4. Also, the “Antimicrobial activity of D-enantiomers, P. aeruginosa CAS3” value in the experiment on P. aeruginosa CAS3 came out at 4. Further, the “Antimicrobial activity of D-enantiomers, P. aeruginosa CAS4” value in the experiment with P. aeruginosa CAS4 amounted to 8. The “Antimicrobial activity of D-enantiomers, P. aeruginosa 372261” value in the experiment with P. aeruginosa 372261 was 4. Besides, the “Pleurocidin MIC (analogue alone)” value in the experiment with EMRSA-15 NCTC 13616 and in the experiment on P. aeruginosa RP73 was 8-16 µg/ml throughout. Besides, in experiment [2], the Antimicrobial activity of D-enantiomers, EMR Staphylococcus aureus-15 NCTC 13616 was 16 µg/mL. In [3], the Antimicrobial activity of D-enantiomers, Acinetobacter baumannii AYE was 2 µg/mL. Also, the “Antimicrobial activity of D-enantiomers, Staphylococcus aureus 1199B” value in experiment [4] is reported as 16. Also, the “Antimicrobial activity of D-enantiomers, Staphylococcus aureus USA300” value in experiment [5] was found to be 32. In addition, the “Antimicrobial activity of D-enantiomers, Staphylococcus aureus NCTC 6571” value in [6] worked out at 16. This compound registered an Antimicrobial activity of D-enantiomers, Acinetobacter baumannii ATCC 17978 in experiment [7] of 1 µg/mL. This compound also had an Antimicrobial activity of D-enantiomers, Klebsiella pneumoniae NCTC 13368 in experiment [8] of 2 µg/mL. This compound came in with an Antimicrobial activity of D-enantiomers, P. aeruginosa RP73 in experiment [9] of 16 µg/mL. The same compound had an Antimicrobial activity of D-enantiomers, Pseudomonas aeruginosa NCTC 13437 in [10] of 8 µg/mL. Besides, the Antimicrobial activity of D-enantiomers, Klebsiella pneumoniae M6 in the experiment on Klebsiella pneumoniae M6 came to 2 µg/mL. For the same compound, the “Antimicrobial activity of D-enantiomers, VS Enterococcus faecalis NCTC 775” value in experiment [11] turned out to be 16. Besides, the Antimicrobial activity of D-enantiomers, VR Enterococcus faecium NCTC 12204 in [12] was 16 µg/mL. Besides, the Antimicrobial activity of D-enantiomers, Pseudomonas aeruginosa PAO1 in [13] is 2 µg/mL. In experiment [14], this compound came in with an Antimicrobial activity of D-enantiomers, VR Enterococcus faecalis NCTC 12201 of 64 µg/mL.
Regarding `CNC(C)C1CCC(N)C(OC2C(N)CC(N)C(OC3OCC(C)(O)C(NC)C3O)C2O)O1` (stereo not drawn) [Gentamicin], the “Survival % @ 96 h” value in the experiment on A. baumannii ATCC 17978 amounted to 86.7%.
Still for that read-out and setting: then `C[C@@H](O)[C@H]1C(=O)N2C(C(=O)O)=C(SCCN=CN)C[C@H]12` [Imipenem], with 70.0%; and `C[C@@H](O)[C@H]1C(=O)N2C(C(=O)O)=C(S[C@@H]3CN[C@H](C(=O)N(C)C)C3)[C@H](C)[C@H]12` [Meropenem], with 70.0%.
For the compound `CC[C@H](C)[C@H](NC(=O)[C@H](CCCNC(=N)N)NC(=O)[C@H](CCCNC(=N)N)NC(=O)[C@H](CC(C)C)NC(=O)[C@H](Cc1c[nH]c2ccccc12)NC(=O)[C@H](CCCCN)NC(=O)[C@H](CCCNC(=N)N)NC(=O)[C@H](CCCCN)NC(=O)[C@H](CCCNC(=N)N)NC(=O)[C@H](CCCNC(=N)N)NC(=O)CN)C(=O)NCC(=O)N[C@@H](CCCCN)C(=O)NCC(=O)N[C@H](C(=O)N[C@@H](CCCCN)C(=O)N[C@H](C(=O)N[C@H](C(=O)NCC(=O)NCC(=O)N[C@@H](C)C(=O)N[C@@H](C)C(=O)N[C@@H](CC(C)C)C(=O)N[C@@H](CC(=O)O)C(=O)N[C@@H](Cc1c[nH]cn1)C(=O)N[C@@H](CC(C)C)C(N)=O)[C@@H](C)CC)[C@@H](C)CC)C(C)C` [WF1a-1] (H-GRRKRKWLRRIGKGVKIIGGAALDHL-NH2), in the experiment on Gram-negative bacteria, the “MICs against Gram-negative isolates (range over panel)” value lay within 0.25 to 8 µg/mL.
